Patent US8178678B2, “Bis-quaternary ammonium salts and methods for modulating neuronal nicotinic acetylcholine receptors” (University of Kentucky Research Foundation, priority 2006, dated 2012)
Where two headings read alike, the source gives them in different places.

Experiments:
[1] = molecular target: T1, Rat Striatal Nicotinic Receptors ([^3H]NIC binding sites; α4β2) (Rattus norvegicus, UniProt P09483+P12390); assay: Inhibition of [^3H]NIC binding
T1 construct: Whole brain, excluding cortex and cerebellum, was homogenized in 20 vol of ice-cold buffer; from tissue; host or cells: rat brain membranes (whole brain excluding cortex and cerebellum)

[2] = molecular target: T2, Rat Striatal Nicotinic Receptors ([^3H]MLA binding sites; α7) (Rattus norvegicus, UniProt Q05941); assay: Inhibition of [^3H]MLA (methyllycaconitine) binding
T2 construct: Whole brain, excluding cortex and cerebellum, was homogenized in 20 vol of ice-cold buffer; from tissue; host or cells: rat brain membranes (whole brain excluding cortex and cerebellum)
Method in brief: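 Rat brain membranes were washed by repeated centrifugation at 25,000 g, with a 10 min incubation at 37° C. in between. Samples of 250 μl, containing 100-140 μg of membrane protein, 3 nM [^3H]-methyllycaconitine and test analog in 50 mM Tris assay buffer, were incubated in 96-well plates for 60 min at room temperature. Nonspecific binding was defined with 10 μM S-nicotine. Bound radioactivity was collected on polyethylenimine-soaked GF/B filter plates and counted on a TopCount.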

[3] = test system: nicotinic receptors mediating S-nicotine-evoked [^3H]DA release in rat striatal slices; assay: Inhibition of S-nicotine-evoked [^3H]dopamine release from superfused rat striatal slices; assay type: cell-based; settings: 1 h; 100 nM analog superfused 60 min before NIC 10 μM; rat striatal slices; read-out: [^3H]DA release, % inhibition of S-nicotine-evoked release
Method in brief: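 Superfused rat striatal slices preloaded with 0.1 μM [3H]DA, in Krebs buffer with nomifensine and pargyline (10 μM each), 34 °C. Analogs (100 nM) given 60 min before 10 μM S-nicotine; tritium overflow by scintillation, inhibition expressed as percent of nicotine-evoked overflow without analog; full concentration-effect curves where […] given.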

[4] = full concentration effect, 3 nM [^3H]NIC, nonspecific 10 μM cytisine, rat brain membranes, read-out: [^3H]NIC binding, Ki
[5] = full concentration effect, [^3H]MLA, nonspecific S-nicotine, rat brain membranes, read-out: [^3H]MLA binding, Ki

T1 sequence (P09483 31-630): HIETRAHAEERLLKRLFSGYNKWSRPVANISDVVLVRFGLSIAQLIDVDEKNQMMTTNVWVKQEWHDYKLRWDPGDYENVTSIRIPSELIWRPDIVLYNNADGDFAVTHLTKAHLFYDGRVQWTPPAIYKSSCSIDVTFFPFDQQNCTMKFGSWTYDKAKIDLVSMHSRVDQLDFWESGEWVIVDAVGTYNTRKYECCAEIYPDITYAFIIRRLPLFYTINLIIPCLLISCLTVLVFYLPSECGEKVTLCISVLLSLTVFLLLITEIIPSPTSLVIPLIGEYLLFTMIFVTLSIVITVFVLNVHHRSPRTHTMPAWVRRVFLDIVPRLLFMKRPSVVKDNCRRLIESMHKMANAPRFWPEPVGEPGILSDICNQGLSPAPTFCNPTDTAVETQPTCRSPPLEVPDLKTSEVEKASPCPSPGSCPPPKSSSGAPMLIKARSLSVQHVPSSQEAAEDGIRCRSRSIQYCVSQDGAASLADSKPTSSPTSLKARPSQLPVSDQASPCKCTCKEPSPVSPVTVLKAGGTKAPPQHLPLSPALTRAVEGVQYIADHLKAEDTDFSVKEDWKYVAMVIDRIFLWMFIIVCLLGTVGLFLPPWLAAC
T1 sequence (P12390 25-500): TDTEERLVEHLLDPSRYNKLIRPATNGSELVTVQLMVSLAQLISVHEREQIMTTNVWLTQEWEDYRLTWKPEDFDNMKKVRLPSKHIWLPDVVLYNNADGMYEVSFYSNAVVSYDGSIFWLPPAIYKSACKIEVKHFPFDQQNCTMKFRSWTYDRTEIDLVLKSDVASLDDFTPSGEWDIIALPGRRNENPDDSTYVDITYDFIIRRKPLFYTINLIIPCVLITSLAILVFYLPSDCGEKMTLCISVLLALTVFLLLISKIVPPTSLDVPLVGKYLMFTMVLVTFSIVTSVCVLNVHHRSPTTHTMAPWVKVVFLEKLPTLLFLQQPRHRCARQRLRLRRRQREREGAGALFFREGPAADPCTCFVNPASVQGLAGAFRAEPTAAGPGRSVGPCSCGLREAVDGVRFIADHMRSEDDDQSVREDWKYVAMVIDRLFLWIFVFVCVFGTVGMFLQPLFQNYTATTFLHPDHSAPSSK
T2 sequence (Q05941 23-502): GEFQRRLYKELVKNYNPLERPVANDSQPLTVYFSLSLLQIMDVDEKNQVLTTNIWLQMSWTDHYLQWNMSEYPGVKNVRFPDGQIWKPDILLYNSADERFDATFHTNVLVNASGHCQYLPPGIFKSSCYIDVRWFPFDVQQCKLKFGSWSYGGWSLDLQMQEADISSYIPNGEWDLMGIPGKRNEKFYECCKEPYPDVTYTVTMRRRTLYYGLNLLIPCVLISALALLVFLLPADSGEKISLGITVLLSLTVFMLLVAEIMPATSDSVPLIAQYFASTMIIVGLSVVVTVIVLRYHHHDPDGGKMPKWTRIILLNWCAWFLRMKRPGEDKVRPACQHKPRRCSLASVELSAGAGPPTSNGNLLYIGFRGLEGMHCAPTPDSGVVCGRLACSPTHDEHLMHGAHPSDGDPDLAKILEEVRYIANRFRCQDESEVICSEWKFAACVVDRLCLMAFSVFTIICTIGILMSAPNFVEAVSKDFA

SMILES | Ki [1, 4] | Ki [2, 5] | inhibition at 0.1 µM [3] | Ki [1] | Ki [2]
Cc1ccc[n+](CCCC/C=C\C=C/CCCC[n+]2cccc(C)c2)c1 [Example 3, cis-cis-N,N′-(dodeca-5,7-diene-1,12-diyl)-bis-(3-methyl-pyridinium)dibromide] | > 100 µM | > 100 µM | 31% |  | 
Cc1ccc[n+](CCCCC#CC#CCCCC[n+]2cccc(C)c2)c1 [Example 92, N,N′-(5,7-dodecadiyn-1,12-diyl)-bis-(3-methylpyridinium)dichloride] |  |  | 18% | 6.36 µM | > 100 µM
Cc1ccc[n+](CCC#Cc2ccc(C#CCC[n+]3cccc(C)c3)cc2)c1 [Example 97, N,N′-[(1,4-phenylene)-bis-(4-butynyl)]-bis-(3-methyl-pyridinium)dibromide] | 2.75 ± 0.4 µM | > 100 µM | 21% |  | 
CN1CCC[C@@H]1c1ccc[n+](CCCCc2ccc(CCCC[n+]3cccc([C@H]4CCCN4C)c3)cc2)c1 [Example 10, N,N′-[1,4-phenylenedi-(4-butanyl)]-bis-[3-(2′-S-1-methyl-pyrrolidin-2-yl)-pyridinium]dibromide] | 0.63 µM | > 100 µM | 17% |  | 
Cc1ccc[n+](CCCCc2ccc(CCCC[n+]3cccc(C)c3)cc2)c1 [Example 12, N,N′-[1,4-phenylenedi-(4-butanyl)]-bis-(3-methylpyridinium)dibromide] | > 100 µM | > 100 µM | 44% |  | 
Cc1cccc[n+]1CCCCC#CC#CCCCC[n+]1ccccc1C [Example 91, N,N′-(5,7-dodecadiyn-1,12-diyl)-bis-(2-methylpyridinium)dichloride] | 4.4 µM | 23.9 µM | 6% |  | 
Cc1cc[n+](CCCCC#CC#CCCCC[n+]2ccc(C)cc2)cc1 [Example 93, N,N′-(5,7-dodecadiyn-1,12-diyl)-bis-(4-methylpyridinium)dichloride] | 8.93 µM | 5.11 µM | 19% |  | 
Cc1cccc[n+]1CCCCc1ccc(CCCC[n+]2ccccc2C)cc1 [Example 11, N,N′-[1,4-phenylenedi-(4-butanyl)]-bis-(2-methylpyridinium)dibromide] | 5.94 µM | > 100 µM | 37% |  | 
Cc1cc[n+](CCCCc2ccc(CCCC[n+]3ccc(C)cc3)cc2)cc1 [Example 13, N,N′-[1,4-phenylenedi-(4-butanyl)]-bis-(4-methylpyridinium)dibromide] | > 100 µM | > 100 µM | 32% |  | 
C(#Cc1ccc(C#CCC[n+]2ccc3c(c2)CCCC3)cc1)CC[n+]1ccc2c(c1)CCCC2 [Example 99, N,N′-[(1,4-phenylene)-bis-(4-butynyl)]-bis-(5,6,7,8-tetrahydroisoquiolinium)dibromide] | 8.04 µM | 0.87 µM | 14% |  | 
Cc1cc[n+](CCCC/C=C\C=C/CCCC[n+]2ccc(C)cc2)cc1 [Example 4, cis-cis-N,N′-(dodeca-5,7-diene-1,12-diyl)-bis-(4-methyl-pyridinium)dibromide] | > 100 µM |  | 58% |  | > 100 µM
Cc1cc[n+](CCC#Cc2ccc(C#CCC[n+]3ccc(C)cc3)cc2)cc1 [Example 98, N,N′-[(1,4-phenylene)-bis-(4-butynyl)]-bis-(4-methyl-pyridinium)dibromide] | 8.5 µM | > 100 µM | 29% |  | 
